In patent publication US6509356B1, “1-(4-(Substituted alkoxy)benzyl)naphthalene compounds having estrogen inhibitory activity” (Eli Lilly and Company, priority 1997, dated 2003) one finds EC50 data, which are given here for 14 compounds.

SMILES strings stand for the structures. Structures can show the parent of a compound that is named as a salt.

For the assay, the system named is MCF-7 breast adenocarcinoma cells. As to the kind of experiment: MCF-7 Proliferation Assay (tritiated thymidine incorporation). It is filed as cell-based. Particulars: Homo sapiens, MCF7; MCF-7 cells (ATCC HTB 22) in DCC-FBS assay medium, 48 hours with drug, then tritiated thymidine pulse for 4 hours; read-out: Inhibition of MCF7 cell proliferation: ED50. The source says: Biological Activity of the Compounds of the Present Invention—MCF-7 Proliferation Assay
The data reported in each of the Examples given above for inhibition of MCF-7 cell proliferation were obtained in an assay which determined each compound's ability to inhibit the proliferation of MCF-7 breast adenocarcinoma cells.
In the assay, these cells (ATCC HTB 22) are maintained in minimal essential medium, phenol red-free, (Sigma, St. Louis, Mo.) supplemented with 10% (V/V) fetal bovine serum (FBS), L-glutamine (2 mM), sodium pyruvate (1 mM), HEPES {(N-[2-hydroxyethyl]piperazine-N′-[2-ethanesulfonic acid] 10 mM}, non-essential amino acids and bovine insulin (1 ug/mL) (maintenance medium). Ten days prior to assay, MCF-7 cells are switched to maintenance medium supplemented with 10% dextran coated charcoal stripped fetal bovine serum (DCC-FBS) assay medium) in place of 10% FBS to deplete internal stores of steroids. MCF-7 cells are removed from maintenance flasks using cell dissociation medium (Ca++/Mg++ free HBSS (phenol red-free) supplemented with 10 mM HEPES and 2 mM EDTA). Cells are washed twice with assay medium and adjusted to 80,000 cells/mL. Approximately […] (8,000 cells) are added to flat-bottom microculture wells (Costar 3596) and incubated at 37° C. in a 5% CO2 humidified incubator for 48 hours to allow for cell adherence and equilibration after transfer. Serial dilutions of drugs or DMSO as a diluent control are prepared in assay medium and […] to triplicate microcultures followed by […] assay medium for a final volume of […]. After an additional 48 hours at 37° C. in a 5% CO2 humidified incubator, microcultures are pulsed with tritiated thymidine (1 uCi/well) for 4 hours. Cultures are terminated by freezing at −70° C. for 24 hours followed by thawing and harvesting of microcultures using a Skatron Semiautomatic Cell Harvester. Samples are counted by liquid scintillation using a Wallac BetaPlace β counter.
For the compound `O=C1CCCN1CCOc1ccc(Cc2c(-c3ccc(O)cc3)ccc3cc(O)ccc23)cc1` [Example 15, 6-hydroxy-2-(4-hydroxyphenyl)-1-[4-(2-(pyrollidinon-1-yl)ethoxy)benzyl]naphthalene], the EC50 amounted to 40 nM.
In the case of `Oc1ccc(-c2ccc3cc(O)ccc3c2Cc2ccc(OCCCN3CCC4(CCCCC4)CC3)cc2)cc1` [Example 14, hydrochloride], the EC50 was determined as 30 nM.
With `CN1CCCC(COc2ccc(Cc3c(-c4ccc(O)cc4)ccc4cc(O)ccc34)cc2)C1` (centres unmarked) [Example 5, 6-hydroxy-2-(4-hydroxyphenyl)-1-[4-(N-methylpiperidin-3-yl)-methoxybenzyl]naphthalene hydrochloride], the EC50 is 2 nM.
The same measure for `CCCCN(CCCC)CCCOc1ccc(Cc2c(-c3ccc(O)cc3)ccc3cc(O)ccc23)cc1` [Example 7, 6-hydroxy-2-(4-hydroxyphenyl)-1-[4-(3-(N,N-di-n-butylamino)-propoxy)benzyl]naphthalene hydrochloride]: 4 nM; for `CC(=O)c1ccc(N2CCN(CCOc3ccc(Cc4c(-c5ccc(O)cc5)ccc5cc(O)ccc45)cc3)CC2)cc1` [Example 8, 6-hydroxy-2-(4-hydroxyphenyl)-1-[4-(2-(4-(4-acetylphenyl)piperazin-1-yl)ethoxy)benzyl]-naphthalene dihydrochloride]: 4 nM; for `CN1CCCC1COc1ccc(Cc2c(-c3ccc(O)cc3)ccc3cc(O)ccc23)cc1` (centres unmarked) [Example 1, 6-Hydroxy-2-(4-hydroxyphenyl)-1-[4-(N-methylpyrrolidin-2-yl)methoxy-benzyl]naphthalene hydrochloride]: 0.5 nM.
The same measure for `CC(C)N(CCOc1ccc(Cc2c(-c3ccc(O)cc3)ccc3cc(O)ccc23)cc1)C(C)C` [Example 3, 6-hydroxy-2-(4-hydroxyphenyl)-1-[4-(2-(N,N-diisopropyl-amino)ethoxy)benzyl]naphthalene hydrochloride]: 2 nM.
`O=C1CCCN1CCCOc1ccc(Cc2c(-c3ccc(O)cc3)ccc3cc(O)ccc23)cc1` [Example 16, 6-hydroxy-2-(4-hydroxyphenyl)-1-[4-(3-(pyrollidinon-1-yl)propoxy)benzyl]naphthalene]: the EC50 was found to be 30 nM.
Consider `CCN(CCOc1ccc(Cc2c(-c3ccc(O)cc3)ccc3cc(O)ccc23)cc1)C(=O)Nc1cc(Cl)ccc1C` [Example 11, N-ethyl-N-[4-(2-(6-hydroxy-2-(4-hydroxyphenyl)naphth-1-yl-methyl)phenoxy)ethyl]-N′-5-chloro-2-methylphenyl urea], for which the EC50 worked out at 10 nM.
The same measure for `CC1CN(CCOc2ccc(Cc3c(-c4ccc(O)cc4)ccc4cc(O)ccc34)cc2)CC(C)O1` (centres unmarked) [Example 13, 6-hydroxy-2-(4-hydroxyphenyl)-1-[4-(2-(2,6-dimethylmorpholin-4-yl)ethoxy)benzyl]naphthalene hydrochloride]: 20 nM.
The same measure for `CCCCN(CCCC)CCOc1ccc(Cc2c(-c3ccc(O)cc3)ccc3cc(O)ccc23)cc1` [Example 6, 6-hydroxy-2-(4-hydroxyphenyl)-1-[4-(2-(N,N-di-n-butylamino)-ethoxy)benzyl]naphthalene hydrochloride]: 2 nM; for `Oc1ccc(-c2ccc3cc(O)ccc3c2Cc2ccc(OCCCNc3cccc4ccccc34)cc2)cc1` [Example 9, 6-hydroxy-2-(4-hydroxyphenyl)-1-[4-(3-(naphth-1-ylamino)propoxy)benzyl]naphthalene hydrochloride]: 9 nM; for `CCN(CC)CCCOc1ccc(Cc2c(-c3ccc(O)cc3)ccc3cc(O)ccc23)cc1` [Example 2, 6-Hydroxy-2-(4-hydroxyphenyl)-1-[4-(3-(N,N-diethylamino)-propoxy)benzyl]naphthalene hydrochloride]: 0.9 nM.
Under `CN1CCCCC1COc1ccc(Cc2c(-c3ccc(O)cc3)ccc3cc(O)ccc23)cc1` (centres unmarked) [Example 4, 6-hydroxy-2-(4-hydroxyphenyl)-1-[4-(N-methylpiperidin-2-yl)-methoxybenzyl]naphthalene hydrochloride] stands 2 nM.
